IC50 data for 4 molecules are collected here from US7687494B2, “Substituted spirobenzazepines” (Janssen Pharmaceutica NV, priority 2003, dated 2010).

Assay [1] addresses T1, human V1a receptor (Homo sapiens, UniProt P37288). Kind of assay: V1a vasopressin receptor functional activity (intracellular calcium mobilization, FLIPR, V1a-HEK cells). The class given is cell-based. The following applies: V1a (first value of V1a/V2); vasopressin-challenged transfected HEK-293 cells. The protocol: The V1a receptor is a G-protein coupled receptor, which upon activation triggers an increase in intracellular calcium mobilization. To evaluate compounds for their functional V1a receptor activity, HEK-293 cells were transfected with the human V1a receptor (V1a-HEK cells). HEK-293 cells were grown in DMEM (Dulbecco's modified Eagle Media) supplemented with 10% FBS and glutamine. HEK-cells were passed biweekly by trypsinization and seeded into 96 well plates at 33,000 cells per well. HEK-293 cells were transfected with human V1a receptor DNA using DMRIE-C reagent from Life Technologies (Carlsbad, Calif.). Stable lines were generated by selecting cells grown in culture media containing geneticin. After growing in Packard Clear-View black 96 well plates for 4-6 days, V1a-HEK cells were loaded with the calcium-sensitive fluorescence dye, FLUO-3 AM. Changes in intracellular calcium mobilization were measured by quantitating intracellular fluorescence using FLIPR (Fluorometric Imaging Plate Reader; Molecular Devices, Sunnyvale, Calif.). Test compounds were first added to the cells and the resulting changes in fluorescence measured to detect receptor agonistic activity. Five minutes later the cells were challenged with vasopressin to test compounds for their antagonistic activity. Receptor antagonists inhibit the ability of vasopressin to stimulate increases in intracellular fluorescence. IC50's were calculated.
On the technique in general: Calcium flux is commonly read through the fluorescence of an indicator in the cells.

Assay [2] deals with T2, human V2 receptor (Homo sapiens, UniProt P30518). Kind of assay: In-vitro binding assay, 3H-arginine-8-vasopressin, V2 membranes. The following applies: V2 (second value of V1a/V2). The protocol: (§1) Assay buffer is 50 mM Tris-Cl, 5 mM MgCl2, 0.1% BSA (pH 7.5) containing 5 μg/ml of aprotinin, leupeptin, pepstatin, 50 μg/ml bacitracin, and 1 mM Pefabloc (4-(2-Aminoethyl)-benzenesulfonyl fluoride, hydrochloride manufactured by Roche Diagnostics Corporation, Indianapolis, Ind. and distributed by Boehringer Mannheim). H3 vasopressin is ^3H-arginine-8-vasopressin (NEN Life Sciences, Boston, Mass.; 68.5 Ci/mmol, final concentration in assay is 0.65-0.75 nM). Into wells of 96-well round bottom polypropylene plates are added buffer, test compound, membrane (containing human V1a or V2 receptor), and H3 vasopressin. The reaction plates are allowed to sit at room temperature for one hour. The samples are filtered through Unifilter GF/C plates (PerkinElmer Life Sciences, Boston, Mass.) presoaked in 0.3 polyethyleneimine. The plates are washed 5 times with cold physiological saline containing 0.05% Tween 20. After drying, the bottom of the filter plates are sealed and 0.025 ml of Microscint-20 (Packard Instrument Co, Meriden, Conn.) is added to each filter. The top of the plate is sealed, and the plate is counted. Non-specific binding is determined by the addition of 1.25 μM arginine-8-vasopressin in those wells. % Inh. is calculated
(§2) [formula] as follows: (B) V1a Vasopressin Receptor Functional Activity

In assay [3] the target is T1, human V1a receptor. Kind of assay: In-vitro binding assay, 3H-arginine-8-vasopressin, V1a membranes. The following applies: V1a (first value of V1a/V2). The protocol: as §1, §2
Assay [4] addresses T2, human V2 receptor. Briefly: V2 vasopressin receptor functional activity (cAMP accumulation, V2-HEK cells). It is filed as cell-based. On the set-up: expressed in transfected cells; host or cells: HEK-293. The following applies: V2 (second value of V1a/V2); vasopressin-stimulated cAMP in transfected HEK-293 cells. As to the method:
The V2 receptor is also a G-protein coupled receptor which when activated induces an increase in cAMP turnover. Antagonism against the V2 receptor is determined by measuring cAMP accumulation in transfected HEK-293 cells expressing the human V-2 receptor (V2-HEK cells). Compounds are tested for their ability to block the stimulatory effects of vasopressin on cAMP accumulation. The cell content of cAMP is measured by radioimmunoassay using NEN flashplates.
A general note: cAMP levels reflect the balance of adenylyl cyclase and phosphodiesterase activity.

One may read the IC50 as the midpoint of a concentration-inhibition curve.

T1 sequence (P37288 whole entry): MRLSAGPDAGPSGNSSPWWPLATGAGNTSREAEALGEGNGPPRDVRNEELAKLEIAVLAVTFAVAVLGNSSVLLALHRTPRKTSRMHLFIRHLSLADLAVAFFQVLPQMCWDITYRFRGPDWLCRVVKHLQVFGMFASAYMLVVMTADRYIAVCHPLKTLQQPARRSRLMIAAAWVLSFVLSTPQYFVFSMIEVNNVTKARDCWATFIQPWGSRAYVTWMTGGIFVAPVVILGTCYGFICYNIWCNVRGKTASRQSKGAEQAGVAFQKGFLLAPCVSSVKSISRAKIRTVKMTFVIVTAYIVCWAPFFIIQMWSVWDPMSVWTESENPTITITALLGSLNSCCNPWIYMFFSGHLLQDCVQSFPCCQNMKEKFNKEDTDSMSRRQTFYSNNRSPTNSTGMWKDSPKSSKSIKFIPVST
T2 sequence (P30518 whole entry): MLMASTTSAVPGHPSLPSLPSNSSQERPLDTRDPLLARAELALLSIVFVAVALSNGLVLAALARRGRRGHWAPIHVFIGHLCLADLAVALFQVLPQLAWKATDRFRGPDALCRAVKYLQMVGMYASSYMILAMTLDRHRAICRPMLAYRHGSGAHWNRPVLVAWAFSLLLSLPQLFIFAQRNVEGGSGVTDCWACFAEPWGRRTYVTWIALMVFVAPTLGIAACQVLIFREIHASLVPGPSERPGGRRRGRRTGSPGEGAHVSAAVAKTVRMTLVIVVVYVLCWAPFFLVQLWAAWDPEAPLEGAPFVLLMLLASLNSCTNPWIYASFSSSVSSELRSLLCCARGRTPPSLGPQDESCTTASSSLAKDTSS

Consider `CN(C)CCNC(=O)C1=CC2(CC1)CCN(C(=O)c1ccc(NC(=O)c3ccccc3-c3ccccc3)cc1)c1ccccc1C2` (racemic) [A, 4-(2-phenylbenzoyl-4-aminobenzoyl)-3′-[2-(N,N-dimethylaminoethylcarbony)]-4-aza-[6,4]-spiro-[5,6]-benzoundec-2′-ene, reference compound], for which the figures for the IC50 at human V1a receptor [1], on human V2 receptor [2] and at human V1a receptor [3] were 0.004 µM, 0.011 µM and 0.005 µM, respectively.

As for `COc1cc(C(=O)N2CC[C@]3(C=C(C(=O)O)CC3)Cc3ccccc32)ccc1NC(=O)c1cc(F)ccc1Cl` [Compound 29, (R)-4-(2-Chloro-5-fluorobenzoyl-3-methoxy-4-aminobenzoyl)-4-aza-3′-(carboxy)-[6,4]-spiro-[5,6]-benzoundec-2′-ene], the IC50 at human V1a receptor [1] came to 0.038 µM; on human V2 receptor [2] it was 0.03 µM; against human V2 receptor [4] it was 0.052 µM; on human V1a receptor [3] it was 0.005 µM.

In the case of `CCOc1cc(C(=O)N2CC[C@]3(C=C(C(=O)O)CC3)Cc3ccccc32)ccc1NC(=O)c1cc(F)ccc1Cl` [Compound 31, (R)-4-(2-Chloro-5-fluorobenzoyl-3-ethoxy-4-aminobenzoyl)-4-aza-3′-carboxy-[6,4]-spiro-[5,6]-benzoundec-2′-ene], the IC50 was 0.05 µM at human V1a receptor [1], 0.071 µM at human V2 receptor [2], 0.15 µM against human V2 receptor [4] and 0.008 µM on human V1a receptor [3].

For `O=C(O)C1=C[C@@]2(CC1)CCN(C(=O)c1ccc(NC(=O)c3cc(F)ccc3Cl)cc1)c1ccccc1C2` [reference compound], the IC50 at human V1a receptor [1] was 0.38 µM; on human V2 receptor [2] it was 0.053 µM; against human V2 receptor [4], 0.1 µM; at human V1a receptor [3], 0.013 µM.
